Experimental data taken from US9695155B2, “Herbicidal substituted pyrimidinyloxy benzene compounds” (E. I. DU PONT DE NEMOURS AND COMPANY, priority 2013, dated 2017).

Columns and labels:
barnyardgrass [1] = assay: Test A preemergence; format: in vivo, Echinochloa crus-galli
Method in brief: (§1)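 Visual injury scored 0–100 (100 = complete control) against untreated controls about 10 days after treatment in a greenhouse. Test chemicals, formulated with surfactant in non-phytotoxic solvent, were sprayed on soil preemergence or on 2-10 cm, one- to two-leaf plants postemergence.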

large (Lg) crabgrass [2] = assay: Test A preemergence; format: in vivo, Digitaria sanguinalis
Method in brief: as §1

giant foxtail [3] = assay: Test A preemergence; format: in vivo, Setaria faberii
Method in brief: as §1

morningglory [4] = assay: Test A preemergence; format: in vivo, Ipomoea spp.
Method in brief: as §1

pigweed [5] = assay: Test A preemergence; format: in vivo, Amaranthus retroflexus
Method in brief: as §1

velvetleaf [6] = assay: Test A preemergence; format: in vivo, Abutilon theophrasti
Method in brief: as §1

wheat [7] = assay: Test A preemergence; format: in vivo, Triticum aestivum
Method in brief: as §1

corn [8] = assay: Test A preemergence; format: in vivo, Zea mays
Method in brief: as §1

barnyardgrass [9] = assay: Test A postemergence; format: in vivo, Echinochloa crus-galli; conditions: 0 to 100 scale where 0 is no effect and 100 is complete control
Method in brief: as §1

large (Lg) crabgrass [10] = assay: Test A postemergence; format: in vivo, Digitaria sanguinalis; conditions: 0 to 100 scale where 0 is no effect and 100 is complete control
Method in brief: as §1

giant foxtail [11] = assay: Test A postemergence; format: in vivo, Setaria faberii; conditions: 0 to 100 scale where 0 is no effect and 100 is complete control
Method in brief: as §1

morningglory [12] = assay: Test A postemergence; format: in vivo, Ipomoea spp.; conditions: 0 to 100 scale where 0 is no effect and 100 is complete control
Method in brief: as §1

pigweed [13] = assay: Test A postemergence; format: in vivo, Amaranthus retroflexus; conditions: 0 to 100 scale where 0 is no effect and 100 is complete control
Method in brief: as §1

velvetleaf [14] = assay: Test A postemergence; format: in vivo, Abutilon theophrasti; conditions: 0 to 100 scale where 0 is no effect and 100 is complete control
Method in brief: as §1

wheat [15] = assay: Test A postemergence; format: in vivo, Triticum aestivum; conditions: 0 to 100 scale where 0 is no effect and 100 is complete control
Method in brief: as §1

corn [16] = assay: Test A postemergence; format: in vivo, Zea mays; conditions: 0 to 100 scale where 0 is no effect and 100 is complete control
Method in brief: as §1

rice [17] = assay: Test B flooded paddy test; format: in vivo, Oryza sativa; conditions: Flood, 250 g ai/ha; 0 to 100 scale where 0 is no effect and 100 is complete control
Method in brief: (§2)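 Post-emergence paddy-water application at the 2-leaf stage, with 3 cm flood kept for the whole test. Response was judged visually relative to controls after 13 to 15 greenhouse days, 0 indicating no effect and 100 complete control.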

sedge, umbrella [18] = assay: Test B flooded paddy test; format: in vivo, Cyperus difformis; conditions: Flood, 250 g ai/ha; 0 to 100 scale where 0 is no effect and 100 is complete control
Method in brief: as §2

Heteranthera limosa = assay: Test B flooded paddy test; format: in vivo; conditions: Flood, 250 g ai/ha; 0 to 100 scale where 0 is no effect and 100 is complete control
Method in brief: as §2

barnyardgrass [19] = assay: Test B flooded paddy test; format: in vivo, Echinochloa crus-galli; conditions: Flood, 250 g ai/ha; 0 to 100 scale where 0 is no effect and 100 is complete control
Method in brief: as §2

rice [20] = assay: Test C flooded paddy test; format: in vivo, Oryza sativa; conditions: Flood, scale 0 to 100 (0 no effect, 100 complete control), 13 to 15 days
Method in brief: (§3)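 Pots were flooded to 3 cm above the soil surface at treatment, compound applied directly to the paddy water, and that depth held throughout. Plants were kept in a greenhouse for 13 to 15 days, then visually rated against untreated controls.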

sedge, umbrella [21] = assay: Test C flooded paddy test; format: in vivo, Cyperus difformis; conditions: Flood, scale 0 to 100 (0 no effect, 100 complete control), 13 to 15 days
Method in brief: as §3

ducksalad = assay: Test C flooded paddy test; format: in vivo, Heteranthera limosa; conditions: Flood, scale 0 to 100 (0 no effect, 100 complete control), 13 to 15 days
Method in brief: as §3

barnyardgrass [22] = assay: Test C flooded paddy test; format: in vivo, Echinochloa crus-galli; conditions: Flood, scale 0 to 100 (0 no effect, 100 complete control), 13 to 15 days
Method in brief: as §3

[23] = 500 g ai/ha, 0 to 100 scale where 0 is no effect and 100 is complete control

FC(F)c1cccc(Oc2ncc(Br)cn2)c1-n1cc(Br)cn1 [Compound 231]
Barnyardgrass plant response rating (0 to 100 scale, 0 is no effect, 100 is complete control) (barnyardgrass [1]; 125 g ai/ha): 20 | Barnyardgrass plant response rating (barnyardgrass [1]; [23]): 100 | Crabgrass, Large plant response rating (0 to 100 scale) (large (Lg) crabgrass [2]; 125 g ai/ha): 90 | Crabgrass, Large plant response rating (large (Lg) crabgrass [2]; [23]): 100 | Foxtail, Giant plant response rating (0 to 100 scale) (giant foxtail [3]; 125 g ai/ha): 90 | Foxtail, Giant plant response rating (giant foxtail [3]; [23]): 100 | Morningglory plant response rating (0 to 100 scale) (morningglory [4]; 125 g ai/ha): 0 | Morningglory plant response rating (morningglory [4]; [23]): 30 | Pigweed plant response rating (0 to 100 scale) (pigweed [5]; 125 g ai/ha): 90 | Pigweed plant response rating (pigweed [5]; [23]): 100 | Velvetleaf plant response rating (0 to 100 scale) (velvetleaf [6]; 125 g ai/ha): 0 | Velvetleaf plant response rating (velvetleaf [6]; [23]): 100 | Wheat plant response rating (0 to 100 scale) (wheat [7]; 125 g ai/ha): 0 | Wheat plant response rating (wheat [7]; [23]): 20 | Corn plant response rating (0 to 100 scale) (corn [8]; 125 g ai/ha): 0 | Corn plant response rating (corn [8]; [23]): 20 | Barnyardgrass plant response rating (barnyardgrass [9]; 125 g ai/ha): 40 | Plant response rating, Barnyardgrass (barnyardgrass [9]; 500 g ai/ha): 90 | Crabgrass, Large plant response rating (large (Lg) crabgrass [10]; 125 g ai/ha): 70 | Plant response rating, Crabgrass, Large (large (Lg) crabgrass [10]; 500 g ai/ha): 90 | Foxtail, Giant plant response rating (giant foxtail [11]; 125 g ai/ha): 70 | Plant response rating, Foxtail, Giant (giant foxtail [11]; 500 g ai/ha): 90 | Morningglory plant response rating (morningglory [12]; 125 g ai/ha): 30 | Plant response rating, Morningglory (morningglory [12]; 500 g ai/ha): 90 | Pigweed plant response rating (pigweed [13]; 125 g ai/ha): 100 | Plant response rating, Pigweed (pigweed [13]; 500 g ai/ha): 100 | Velvetleaf plant response rating (velvetleaf [14]; 125 g ai/ha): 100 | Plant response rating, Velvetleaf (velvetleaf [14]; 500 g ai/ha): 100 | Wheat plant response rating (wheat [15]; 125 g ai/ha): 20 | Plant response rating, Wheat (wheat [15]; 500 g ai/ha): 50 | Corn plant response rating (corn [16]; 125 g ai/ha): 20 | Plant response rating, Corn (corn [16]; 500 g ai/ha): 90 | Plant response rating, Rice (rice [17]): 30 | Plant response rating, Sedge, Umbrella (sedge, umbrella [18]): 80 | Plant response rating, Ducksalad (Heteranthera limosa): 80 | Plant response rating, Barnyardgrass (barnyardgrass [19]): 20 | Plant response rating, Rice (rice [20]; 31 g ai/ha): 0 | Plant response rating, Rice (rice [20]; 62 g ai/ha): 0 | Plant response rating, Rice (rice [20]; 125 g ai/ha): 0 | Plant response rating, Rice (rice [20]; 250 g ai/ha): 0 | Plant response rating, Sedge, Umbrella (sedge, umbrella [21]; 31 g ai/ha): 0 | Plant response rating, Sedge, Umbrella (sedge, umbrella [21]; 62 g ai/ha): 50 | Plant response rating, Sedge, Umbrella (sedge, umbrella [21]; 125 g ai/ha): 70 | Plant response rating, Sedge, Umbrella (sedge, umbrella [21]; 250 g ai/ha): 80 | Plant response rating, Ducksalad (ducksalad; 31 g ai/ha): 0 | Plant response rating, Ducksalad (ducksalad; 62 g ai/ha): 30 | Plant response rating, Ducksalad (ducksalad; 125 g ai/ha): 70 | Plant response rating, Ducksalad (ducksalad; 250 g ai/ha): 75 | Plant response rating, Barnyardgrass (barnyardgrass [22]; 31 g ai/ha): 0 | Plant response rating, Barnyardgrass (barnyardgrass [22]; 62 g ai/ha): 0 | Plant response rating, Barnyardgrass (barnyardgrass [22]; 125 g ai/ha): 0 | Plant response rating, Barnyardgrass (barnyardgrass [22]; 250 g ai/ha): 0
